According to article PMC12259270, “Sensory neuron–expressed FGF13 controls nociceptive signaling in diabetic neuropathy models” (The Journal of Clinical Investigation, 2025):
Values joined by “and” are separate entries in the source; they are usually repeats but may differ in a detail not shown here. Equal entries are not always repeated. Residues, ends and D or L forms follow the SMILES beside them. *: point of attachment. Cbz = O=C(OCc1ccccc1)*; NHPh = c1ccc(N*)cc1; OtBu = CC(C)(C)O*

Key:
C57BL/6 mice = experiment: Thermal sensitivity (Hargreaves radiant heat) after intraplantar injection, mice without capsaicin; assay type: in vivo, mouse
Experimental: Experiments were performed on 6- to 12-week-old male C57BL/6 mice (The Jackson Laboratory, Bar Harbor, ME) housed in the AAALAC-accredited facility at the University of Texas Medical Branch. Mice were group-housed with up to 5 mice per cage on a 12-to-12-hour light–dark cycle and had access to water and food ad libitum. All protocols were approved by the Institutional Animal Care and Use Committee (IACUC) at the University of Texas Medical Branch and in accordance with the National Institutes of Health (NIH) guidelines.
PW164 and ZL192 were dissolved in DMSO and saline in a ratio of 1:10. 0.1% capsaicin (10% ethanol, 10% Tween-20 in saline; Sigma-Aldrich). All the compounds were injected at the center of the hind paw. The control group received a DMSO-saline mixture. […]
AAV2 viral particles packaged by the University of North Carolina Gene Therapy Core Facility (viral titer ranging […]
Before intrathecal injections in the lumbar region, mice were maintained in an anesthetizing box with 2% isoflurane to induce unconsciousness. Six microliters of viral vector were gently injected into the CSF through a 30-gauge needle with a Hamilton syringe in the lumbar area between vertebrae L4 and L5 by gently gripping the iliac crest of the mouse and inserting the needle with an angle of 45°. The correct procedure was confirmed by the mouse’s tail reflexiv e flick. […]
Assessment of thermal sensitivity
Plantar tests for thermal sensitivity were performed using the Hargreaves apparatus (Ugo Basile, Italy) in mice that were either naïve or received i.p. injection of capsaicin or test compound. A thermal stimulus, generated by an infrared-focused light source, invisible to the rodent, was applied through a glass pane, to the plantar surface of the hind paw of the animal. The response to this stimulus was considered the withdrawal of the stimulated paw (lifting and licking). Light intensity was set up at 30% and the cut-off at the 20 s. The final value of thermal withdrawal latency, expressed in seconds, was the average value of three consecutive trials. […]

[1] = system: donor-derived DRG neurons; experiment: Whole-cell current-clamp, human donor-derived DRG neurons; assay type: cell-based
Source text: Human donor (hDRG) neurons. Dorsal root ganglia were recovered from consented, de-identified organ and tissue donors at the University of Cincinnati Medical Center following previously described protocols (57, 58). Recovered tissues were transported in oxygenated, ice-cold N-methyl-D-glucamine (NMDG) artificial […] (aCSF, mM): 93 NMDG, 2.5 KCl, 1.25 NaH2PO4, 30 NaHCO3, 20 HEPES, 25 Glucose, 5 Ascorbic acid, 2 Thiourea, 3 Na+ pyruvate, 10 MgSO4, 0.5 CaCl2, 12 N-acetylcysteine, adjusted to pH 7.4 with HCl). hDRGs were isolated from connective tissue, fat, roots, and nerves and then minced into small 1-3 mm pieces which were enzymatically treated with warmed papain (45U) followed by collagenase (4.5 mg/200µl) each for 40 minutes at 37 °C, 5% CO2 in HBSS with 5 mM HEPES (Hanks’ Balanced Salt Solution with 4-2 (2-hydrozyethyl)-1-piperazineethananessulfonic acid; Gibco). Neurons were dissociated by trituration and incubated in warmed Neurobasal A-based DRG media (with penicillin/streptomycin, B27 supplement (Gibco), fetal bovine serum (FBS), and GlutaMAX (Gibco, cat # 35050061), as previously described. Dissociated DRG suspension was plated onto poly-d-lysine (0.01 mg/ml, Sigma) and collagen (1 mg/ml, Sigma) coated coverslips and incubated 2 days. […]
following salts: extracellular (mM): 140 NaCl, 3 KCl, 1 MgCl2, 1 CaCl2, 10 HEPES, 10 glucose, pH 7.3; intracellular (mM): 130 CH3O3 SCs, 1 EGTA, 10 NaCl, 10 HEPES, pH 7.3. Membrane capacitance and series resistance were estimated by the dial settings on the amplifier and compensated for electronically by 70–80%.
Data was acquired at 20 kHz and filtered at 5 kHz before digitization and storage. All experimental parameters were controlled by Clampex 9.2 software (Molecular Devices) and interfaced to the electrophysiological equipment using a Digidata 1300 analog–digital interface (Molecular Devices). […]
μM PW164 or ZL192 in the extracellular solution. The recording solution consisted of the following salts: extracellular (mM): 130 NaCl, 3 KCl, 30 TEA, 0.1 CdCl2 1 MgCl2, 1 CaCl2, 10 HEPES, 10 glucose, pH 7.3; intracellular (mM): 140 CsF, 1.1 EGTA, 10 NaCl, 10 HEPES, pH 7.3.
Human donor DRG neurons: Coverslips were transferred to a recording chamber and bathed in extracellular solution (mM): 145 NaCl, 3 KCl, 2.5 CaCl2, 1.2 MgCl2, 10 HEPES, 7 glucose, 0.05 CdCl2 adjusted to pH 7.4 with NaOH, with a flow rate of 1-2 ml/min. Borosilicate glass pipettes with the resistance of 1.5 to 2.5 MΩ were made using a P-1000 micropipette puller (Sutter Instrument, Novato, CA, USA). The intracellular solution contained (mM): 130 K-gluconate, 5 KCl, 5 NaCl, 2 MgCl2, 0.3 Ethylene glycol-bis(2-aminoethylether)- NNN’N’-tetraacetic acid (EGTA), 10 HEPES, 2 Na ATP, adjusted to pH 7.3 with KOH and 294 mOsm with sucrose. Coverslips were pre-incubated in 50 µM PW164 or ZL192 or 0.1% DMSO vehicle for 1 hour before recording. Recordings were obtained on MultiClamp 700B and Digidata 1550A (Molecular Devices) and sampled […]
at 20 kHz. Neurons were investigated if resting membrane potential was below -45 mV. Neurons were held under current clamp, and membrane properties and action potential discharge were assessed as previously described […]
Human Dorsal Root Ganglia Procurement
Human dorsal root ganglia (DRGs) procurement procedures were performed in accordance with the Institutional Review Boards at the University of Texas at Dallas. DRGs were procured from organ donors through a collaboration with the Southwest Transplant Alliance (STA). DRGs were frozen in powdered dry ice at the time of extraction and then stored in a -80°C freezer until use. Details on tissue procurement procedures, quality metrics, and tissue preparation can be found on protocols.io doi:10.17504/protocols.io.kqdg32qr1v25/v1 (2024).
The medical history of each donor was provided by the STA and is a summary of information from hospital records and family members. Donor demographics, condition (non-diabetic vs diabetic painful neuropathy […]

[2] = 50 µM, 1 hour preincubation, relative to control

Structure (SMILES) | thermal hypersensitivity in AAV2-shFGF13 mice (C57BL/6 mice; ZL192 0.18 mg/mL, i.pl.) | thermal sensitivity in AAV2-shCTRL mice (C57BL/6 mice; ZL192 0.18 mg/mL, i.pl.) | thermal sensitivity (C57BL/6 mice; naive WT mice, ZL192 i.pl. 0.06 or 0.18 mg/mL) | rheobase to fire an action potential [1, 2] | Suppl Fig. S16A, 1x ([1]; single cells) | Suppl Fig. S16A, 3x ([1]; 3x, single cells) | thermal hindpaw withdrawal thresholds (latency), normal sensitivity (C57BL/6 mice; WT mice, i.pl., radiant heat test) | action potential firing [1, 2]
CC(=O)N[C@@H](Cc1ccccc1)C(=O)N[C@@H](CC(C)C)C(=O)N1CCC[C@H]1C(=O)N[C@@H](CCCCN)C(=O)Nc1ccccc1 [ZL192] (Ac-FLPK-NHPh) | absent | caused mechanical and thermal hypersensitivity | also seen | decreased rheobase | 1 | 2 and 1 | – | –
COC(=O)[C@@H](NC(=O)[C@H](CCC(=O)OC(C)(C)C)NC(=O)[C@H](CC(C)C)NC(=O)[C@@H]1CCCN1C(=O)OCc1ccccc1)C(C)C [PW164] (Cbz-PLE(OtBu)V-OMe) | – | – | – | increased rheobase | 1 | – | Neither did PW164 affect thermal hindpaw withdrawal thresholds | reduced action potential firing
